This note sets out measurements from patent US5700639A, “Method for the detection of metabolically labelled DNA” (Boehringer Mannheim GmbH, priority 1993, dated 1997).

For assay [1], the system named is HL60 cells. The experiment in a line: Detection of metabolically labelled DNA fragments in the cytoplasm of apoptotic cells (4 hours incubation). It is filed as cell-based. The settings on record: for A (405 nm), metabolically labelled DNA fragments in the cytoplasm: 37° C. The procedure:
(§1) The cells to be examined (e.g. HL60 cells, ATCC CCL 240) are firstly metabolically labelled by incubation with 0.01 mmol/l bromodeoxyuridine for 18 hours at 37° C. After removing the excess bromodeoxyuridine that is not incorporated into DNA by washing with culture medium, the cells (200 μl in each case, see Table 1 for cell number) are incubated for 4 hours at 37° C. with 2 μg/ml camptothecin (Sigma, Munich) in a microtitre plate. Afterwards 20 μl 10-fold concentrated lysis buffer (PBS/50 mmol/l EDTA/2 % Tween 20) is added to each preparation for the lysis, the microtitre plate is centrifuged and 100 μl supernatant is taken from each well for the test (PBS=137 mmol/l NaCl; 2.7 mmol/l KCl; 8 mmol/l Na2 HPO4 and 1.5 mmol/l KH2 PO4).
In order to detect the metabolically labelled DNA, a further microtitre plate is coated with an antibody against DNA (5 μg/ml, Boehringer Mannheim GmbH, Ident. No. 1525760) in 100 mmol/l NaCO3 buffer pH 9.6. Subsequently the metabolically labelled DNA is bound to the wall antibody by addition of 100 μl supernatant (see above) per well and incubation for 90 minutes at room temperature. After washing with PBS, the remaining liquid is removed from the wells of the microtitre plate by for example knocking. Afterwards the bound double-stranded DNA is denatured or partially degraded by microwave treatment (5 min. 650 watts, AEG Micromat 275Z) or alternatively by addition of 100 μl (corresponding to 1 unit per well of the microtitre plate) exonuclease III (Boehringer Mannheim GmbH, Catalogue No. 779717). The preparation in which the DNA has been denatured by microwave treatment is subsequently cooled for 10 minutes at 8° C. in a refrigerator. The preparation treated with exonuclease III is subsequently washed three times with PBS.
HL60 cells (ATCC CCL 240) were firstly metabolically labelled with bromodeoxyuridine as stated in example 1. After washing out excess bromodeoxyuridine, the cells are incubated in a microtitre plate at 37° C. for 3 or 4 hours with various concentrations of camptothecin (5000 to 0 ng/ml). Subsequently the microtitre plate is centrifuged, an aliquot of the cell culture supernatant (100 μl/well) is taken for the detection of metabolically labelled DNA in the cell culture supernatant according to example 2 and the cells remaining in the microtitre plate are lysed by addition of 100 μl/well 2-fold concentrated lysis buffer (PBS/10 mmol/l EDTA/0.4% Tween 20). The detection of the metabolically labelled DNA in the lysate obtained in this way is then carried out as described in example 1.

The test system of assay [2] is HL60 cells. Nature of the assay: Detection of metabolically labelled DNA fragments in apoptotic cells (3 hours incubation). It is filed as cell-based. The settings on record: 200 ng/ml camptothecin, 37° C. The procedure:
as §1
In order to detect the metabolically labelled DNA, a further microtitre plate is coated with an antibody against DNA (5 μg/ml, Boehringer Mannheim GmbH, Ident. No. 1525760) in 100 mmol/l NaCO3 buffer pH 9.6. Subsequently the metabolically labelled DNA is bound to the wall antibody by addition of 100 μl supernatant (see above) per well and incubation for 90 minutes at room temperature. After washing with PBS, the remaining liquid is removed from the wells of the microtitre plate by for example knocking. […]

Consider `CC[C@@]1(O)C(=O)OCc2c1cc1n(c2=O)Cc2cc3ccccc3nc2-1` [camptothecin], for which the “A (405 nm), metabolically labelled DNA fragments in the cytoplasm” value in assay [1] (1.6 ng/ml camptothecin) is given as 0.295; in assay [1] (8 ng/ml camptothecin), 0.342; in assay [1] (40 ng/ml camptothecin), 0.625; in assay [1] (200 ng/ml camptothecin), 1.006; in assay [1] (1000 ng/ml camptothecin) it was 1.457; in assay [1] (5000 ng/ml camptothecin), 1.677. Besides, the “amount of cytoplasmic, metabolically labelled DNA fragments (dose dependence)” value in assay [1] (camptothecin 5000 to 0 ng/ml) is reported as “correlates with the amount of camptothecin”. In assay [2] (cell culture supernatant (according to example 2)), the “A (405 nm), metabolically labelled DNA, cell culture supernatant” value came out at 0.020. Moreover, the “A (405 nm), metabolically labelled DNA, cytoplasm (lysate after detergent treatment)” value in assay [2] (cytoplasm (lysate after detergent treatment)) came to 0.770.
